This test deals with HEK293 NOD2/MDP-induced NF-kB reporter, inhibition. The experiment in a line: inhibition of MDP-driven NOD2 NF-kB reporter – cell-based, set 3, SAR follow-up (AID 2799).

`CCCCn1c(SCC(=O)Nc2nnc(CC)s2)nc2c1c(=O)n(C)c(=O)n2C`: the 50% inhibitory concentration (IC50) (usually the concentration at which inhibition is half-maximal) is 7.12 µM.

For the origin of these results see PubChem BioAssay AID2799 (Sanford-Burnham Center for Chemical Genomics, 2010).
